The test system of data set [1] is Aspergillus fumigatus (ATCC-204305). In words: Measurement of minimum inhibitory concentration (MIC), ATCC 204305. In kind it is cell-based. Conditions: ATCC204305; Aspergillus fumigatus ATCC 204305, 35° C., 48 hours. As to the method: New streaks are made with glycerol stock solution of the strains of Aspergillus [NT] MYA-4609/AF 293/CBS 101355) on Sabouraud's dextrose agar (SDA), incubate at 35° C. and a humidity of 40-70% for 72 hours. Other strains are processed as the same as AF293. RPMI1640: one packet of RPMI1640 powder is dissolved in 1 L purified water and mixed well, add 0.165M MOPS, adjust the pH to 7.0, sterilize by filtration with 0.22 um membrane, and store at 4° C. for no more than 3 months. Physiological saline: weigh 9 g of sodium chloride powder and dissolve in 1 L of purified water, and mixed well. […] Dissolve the test compound and stock solution of one control compound with DMSO and obtain solutions at a concentration of 12.8 mg/mL The maximum concentration of each compound is 0.8 mg/mL (e.g., 150 μL of dimethyl sulfoxide+10 uL of 12.8 mg/mL compound/control). […] Repeat the above steps up to column 11 to give 2× serial dilutions. 2 μL of the above 2× serial dilutions are injected into each hole of the corresponding test plate using a multichannel pipette. Drop 5 ml of saline on the Aspergillus fumigatus SDA plate. The spores were carefully wiped off from the surface of the plate with an L-shaped coating rod. Then the suspension is transferred into a sterile tube. After shaking, let the tube stand for 5 to 10 minutes. Count the number of spores in the upper suspension with a hemocytometer and check the purity. Adjust the inoculum concentration to 0.2-2.5×10^4 spores/mL. Inject 198 μL of diluted inoculum into each holes of the corresponding test plate using a multichannel pipette. Incubate at 35° C. for 48 hours. […] To facilitate scoring of the presence or absence of growth on the wall, a magnifying glass is used. The tested 96-well microplates were photographed and the optical density at 530 nm is read with an enzyme marker (Tecan Spark).

The subject of data set [2] is Aspergillus flavus (ATCC MYA-1004). Description: Measurement of minimum inhibitory concentration (MIC), ATCC MYA-1004. In kind it is cell-based. The settings on record: Aspergillus flavus ATCC MYA-1004, 35° C., 48 hours. As to the method: New streaks are made with glycerol stock solution of the strains of Aspergillus fumigatus (ATCC MYA-4609/AF 293/CBS 101355) on Sabouraud's dextrose agar (SDA), incubate at 35° C. and a humidity of 40-70% for 72 hours. Other strains are processed as the same as AF293.
RPMI1640: one packet of RPMI1640 powder is dissolved in 1 L purified water and mixed well, add 0.165M MOPS, adjust the pH to 7.0, sterilize by filtration with 0.22 um membrane, and store at 4° C. for no more than 3 months.
Physiological saline: weigh 9 g of sodium chloride powder and dissolve in 1 L of purified water, and mixed well. Sterilize at 121° C. for 30 min, store at room temperature (RT) for no more than 1 week.
Dissolve the test compound and stock solution of one control compound with DMSO and obtain solutions at a concentration of 12.8 mg/mL
The maximum concentration of each compound is 0.8 mg/mL (e.g., 150 μL of dimethyl sulfoxide+10 uL of 12.8 mg/mL compound/control). Column 1 is filled with 40 μL of compound and columns 2 to 11 with 20 μL of dimethyl sulfoxide. Transfer 20 μL of compound from column 1 to column 2 to dilute the concentration. Repeat the above steps up to column 11 to give 2× serial dilutions.
2 μL of the above 2× serial dilutions are injected into each hole of the corresponding test plate using a multichannel pipette.
Drop 5 ml of saline on the Aspergillus fumigatus SDA plate. The spores were carefully wiped off from the surface of the plate with an L-shaped coating rod. Then the suspension is transferred into a sterile tube. After shaking, let the tube stand for 5 to 10 minutes. Count the number of spores in the upper suspension with a hemocytometer and check the purity. Adjust the inoculum concentration to 0.2-2.5×10^4 spores/mL.
Inject 198 μL of diluted inoculum into each holes of the corresponding test plate using a multichannel pipette.
Incubate at 35° C. for 48 hours.
To facilitate scoring of the presence or absence of growth on the wall, a magnifying glass is used. The tested 96-well microplates were photographed and the optical density at 530 nm is read with an enzyme marker (Tecan Spark).

Data set [3] has as its system Aspergillus fumigatus (ATCC MYA-4609/AF293/CBS 101355). Description: Measurement of minimum inhibitory concentration (MIC), AF293. In kind it is cell-based. The settings on record: CBS101355; Aspergillus fumigatus AF293, 35° C., 48 hours, RPMI1640; read-out: AF293: MIC. An outline of the steps:
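Broth microdilution in RPMI1640 buffered with 0.165M MOPS, pH 7.0, spore inoculum 0.2-2.5×10^4 spores/mL from SDA cultures. Twofold compound dilutions in DMSO, 1% of final volume. Incubated 35 °C for 48 h; growth scored visually with magnifier and OD530 read.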

A short description of data set [4]: Liver microsomal stability test, human. In kind it is in vitro ADME. The settings on record: Human liver microsomes; for CLint scaled / half-life: 0.5 mg/mL protein, 37° C., NADPH. A general note: Liver microsomes are a subcellular fraction often used to study metabolism.

SMILES strings stand for the structures. In brackets after ≈: the same amount, converted by molar mass.

One may read the MIC as the least concentration at which growth counts as inhibited. For orientation: CLint scaled means the capacity of the preparation to metabolise the compound, expressed as a volume cleared per time. The half-life is the time needed for the level to fall by half in the phase considered.

Take `Cc1cc(-c2ccccc2)c(C(=O)C(=O)Nc2ccc3c(c2)C[C@H]2CN(c4ncc(F)cn4)CCN32)n1C` [Example 33, (S)-2-(1,5-dimethyl-3-phenyl-1H-pyrrol-2-yl)-N-(2-(5-fluoropyrimidin-2-yl)-1,2,3,4,10,10a-hexahydropyrazino[1,2-a]indol-8-yl)-2-oxoacetamide]: the lowest concentration to inhibit growth in data set [1] (MIC) was 0.016 µg/mL (≈ 0.0313 µM). In data set [2], this compound came in with an MIC of 0.008 µg/mL (≈ 0.0157 µM). For the same compound, the MIC in data set [3] was 0.004 µg/mL (≈ 0.00783 µM). Moreover, in data set [4], the CLint scaled came out at 25.9 mL/min/kg; the half-life worked out at 48.2 min; the “Remaining, (T = 60 min)” value stood at 43.4%.

Take `Cc1cc(-c2ccccc2)c(C(=O)C(=O)Nc2cc(F)c3c(c2)OC[C@H]2CN(c4ncc(F)cn4)CCN32)n1C` [Example 5]: the MIC in data set [1] was determined as 0.016 µg/mL (≈ 0.0294 µM). In addition, the MIC in data set [2] worked out at 0.004 µg/mL (≈ 0.00735 µM). Also, the MIC in data set [3] came to 0.016 µg/mL (≈ 0.0294 µM). Besides, in data set [4], the CLint scaled was 48.8 mL/min/kg; the half-life is 25.6 min; the “Remaining, (T = 60 min)” value is 20.4%.

In data set [1], `Cc1cc(-c2ccccc2)c(C(=O)C(=O)Nc2ccc(N3CCN(c4ncc(F)cn4)CC3)cc2)n1C` [Example F901318, reference compound] gave an MIC of 0.016 µg/mL (≈ 0.0321 µM). The compound further registered an MIC in data set [2] of 0.004 µg/mL (≈ 0.00802 µM). In addition, the MIC in data set [3] is 0.03 µg/mL (≈ 0.0602 µM). In addition, in data set [4], the CLint scaled is 37.8 mL/min/kg; the half-life amounted to 33 min; the “Remaining, (T = 60 min)” value is on record as 27.7%.
